Columns and labels:
[1] = test system: mouse embryonic stem cells; assay: Cytotoxicity and apoptosis assay (annexin-V / 7-AAD) in mouse embryonic stem cells; assay type: cell-based; conditions: incubated with mouse embryonic stem cells; FIG. 1
From the text: Bisphenols have come under increasing scrutiny due to their capacity to mimic estrogen in biological systems, resulting in numerous health complications. Specifically these effects have been observed in endothelial cell differentiation. Bredhult et al., “Gene expression analysis of human endometrial endothelial cells exposed to Bisphenol A,” Reproductive toxicology (Elmsford, N.Y 28, 18-25 (2009). Long et al., Experimental biology and medicine, 226, 477-483 (2001). Accordingly, experiments have been carried out to evaluate the cytotoxicity and differentiation effect of a biologically derived bisphenol polymer precursor replacement. Resveratrol and bisphenol A were incubated with mouse embryonic stem cells and evaluated for cytotoxicity and apoptosis. Cells were then differentiated and evaluated for effect on endothelial differentiation. […]
The procedure for testing toxicity was and can be carried out as follows. […] 100,000 E14 cells were added to a 10 cm plate, covered with 1, 10 and 100 mg of polymer sample, and incubated for 48 hours followed by application of the MTT dye solutions and measurement of absorbance at 570 nm.
The number of apoptotic cells are quantified using an annexin-V apoptosis staining kit with 7-Amino-actinomycin D (7-AAD) vital stain (AnnexinV—PE Apoptosis Detection Kit; BD Biosciences Pharmingen, San Diego, Calif.). […]

[2] = test system: mouse embryonic stem cell line (endothelial differentiation reporter); assay: Endothelial differentiation assay in reporter mouse embryonic stem cell line (green fluorescent protein readout); assay type: cell-based; conditions: FIG. 1; for effect on estrogen receptor function: reporter cell line; for effect on cell (endothelial) differentiation: reporter mouse embryonic stem cell line, cells differentiated after incubation
From the text: Bisphenols have come under increasing scrutiny due to their capacity to mimic estrogen in biological systems, resulting in numerous health complications. Specifically these effects have been observed in endothelial cell differentiation. Bredhult et al., “Gene expression analysis of human endometrial endothelial cells exposed to Bisphenol A,” Reproductive toxicology (Elmsford, N.Y 28, 18-25 (2009). Long et al., Experimental biology and medicine, 226, 477-483 (2001). Accordingly, experiments have been carried out to evaluate the cytotoxicity and differentiation effect of a biologically derived bisphenol polymer precursor replacement. Resveratrol and bisphenol A were incubated with mouse embryonic stem cells and evaluated for cytotoxicity and apoptosis. Cells were then differentiated and evaluated for effect on endothelial differentiation. […] Further studies are planned to test further stages of resveratrol epoxidization. The inventor's lab has developed a mouse embryonic stem cell line capable of providing a quantitative readout of endothelial differentiation due to expression of a green fluorescent protein. Using these and similar cell lines we have been able to assay the effect of new molecules on cell proliferation, death, apoptosis, and endothelial differentiation. Robilotto et al., Dalton Transactions, 40(32): 8083-5 (2011). This cell line will be used to determine the biological effect of the newly proposed polymers as compared to the effect of benchmark controls. Protocols similar to those previously published can be used to determine the biocompatibility of the new polymers as compared to that of benchmark resin, evaluating the capacity of mouse embryonic stem cells to proliferate, their rate of cell death by toxicity or apoptosis, and their capacity to differentiate into […]. Kim et al., Tissue engineering, 15, 3709-3718 (2009); Kim et al., Tissue engineering, 16, 1065-1074 (2010).

## Oc1ccc(C=Cc2cc(O)cc(O)c2)cc1 [Resveratrol, resveratrol]
[1]
  over toxicity using the apoptosis assay: relatively indistinguishable
[2]
  effect on estrogen receptor function: little to no impact on estrogen receptor function
  effect on cell (endothelial) differentiation: comparable to negative controls

## CC(C)(c1ccc(O)cc1)c1ccc(O)cc1 [bisphenol A]
[1]
  over toxicity using the apoptosis assay: relatively indistinguishable
[2]
  effect on estrogen receptor function: clearly interferes with estrogen receptor function
  effect on cell (endothelial) differentiation: negatively effects cell differentiation
[2]; listed as BPA
  effect on estrogen receptor function: interferes estrogen receptor function
  effect on cell (endothelial) differentiation: negatively impacts cell differentiation

Source: patent US9777106B2, “Bisphenol polymer precursor replacements” (CASE WESTERN RESERVE UNIVERSITY, priority 2013, dated 2017)
